{"source": "patent US10106577B2", "about": "“Agonists of neurotrophin receptors and their use as medicaments” (BIONURE FARMA, S.L., priority 2010, dated 2018)", "key": {"[1]": {"system": "mice affected by EAE", "test": "Experimental autoimmune encephalomyelitis (EAE) model of MS", "type": "in vivo, C57BL/6 mice", "procedure": "The effect of G79 was tested in the animal model of MS, the experimental autoimmune encephalomyelitis (EAE), by performing a preventive trial (in which the therapy starts at the time of the induction of the disease) and a curative trial (in which the therapy starts when the animals are already suffering from the disease). Female C57BL/6 mice from Harlan (8-12 weeks old) were immunized subcutaneously in both hind pads with 300 μg of myelin oligodendrocyte glycoprotein (MOG) peptide 35-55 (Spikem, Firenze) emulsified with 50 μg of Mycobacterium tuberculosis (H37Ra strain; Difco, Detroit, Mich.) in incomplete Freund's adjuvant (IFA) as previously described in Palacios et al., 2007. The mice were injected intraperitoneally with Pertussis toxin (Sigma) (500 ng) at the time of immunization and 2 days later. The animals were weighted and inspected for clinical signs of disease on a daily basis by a blinded observer. The severity of the disease EAE was assessed for 30 days according to the following scale: 0=normal; 0.5=mild limp tail; 1=limp tail; 2=mild paraparesis of the hind limbs, unsteady gait; 3=moderate paraparesis, voluntary movements still possible; 4=paraplegia or tetraparesis; 5=moribund state. At the end of the study, the mice were anesthetized and perfused intracardially with 4% of paraformaldehyde in 0.1 M phosphate buffer (pH 7.6). The brains, spinal cords and spleens were dissected and either fixed or frozen until use. Also serum was obtained from all the animals included in the study. This procedure was approved by the University of Barcelona Committee on Animal Care.\nTwo different experiments were performed to assess both the preventive effect and curative effect of G79, compared to other drugs targeting neurotrophin pathway (Gambogic amide and Xaliproden) or one of the first line therapy for the treatment of MS, i.e., Glatiramer acetate.\nFor the preventive trial, 10 animals were treated with intraperitoneal injection of G79 at the concentration of 40 mg/kg, 10 animals were treated with intraperitoneal injection of G79 at the concentration of 100 mg/kg, 10 animals were treated with intraperitoneal injection of Gambogic amide at the concentration of 2 mg/kg, 10 animals were treated with oral administration of Xaliproden at the concentration of 10 mg/kg. As both Gambogic amide and Xaliproden were diluted with different percentage of DMSO, 5 animals were treated with intraperitoneal injection of placebo (physiologic solution plus 1% DMSO) and other 5 animals were treated with placebo oral (physiologic solution plus 2.5% DMSO), respectively. The treatments were performed daily, starting after the immunization day.\nFor the curative trial, to reduce the discrepancy between the oral administration and intraperitoneal injections, as stress can deeply affect the development of the clinical scores in animals, all the treatments were performed by intraperitoneal injections. For this study, 8 animals were treated with G79 at the concentration of 40 mg/kg, 8 animals were treated with G79 at the concentration of 100 mg/kg, 8 animals were treated with Gambogic amide at the concentration of 2 mg/kg, 8 animals were treated with Xaliproden at the concentration of 10 mg/kg, 8 animals were treated with Glatiramer acetate at the concentration of 5 mg/kg, 8 animals were treated with placebo (physiologic solution plus 2.5% DMSO). The treatments were performed daily starting after the increase of the clinical score at score 2 (after the second day at this score)."}, "[2]": {"target": "T1, p75 receptor (Rattus norvegicus, UniProt P07174)", "T1 construct": "PC12 cells expressing both TrkA and p75 receptors were cultivated in normal growth medium; endogenous in cells; host or cells: PC12", "T1 sequence (P07174 30-425)": "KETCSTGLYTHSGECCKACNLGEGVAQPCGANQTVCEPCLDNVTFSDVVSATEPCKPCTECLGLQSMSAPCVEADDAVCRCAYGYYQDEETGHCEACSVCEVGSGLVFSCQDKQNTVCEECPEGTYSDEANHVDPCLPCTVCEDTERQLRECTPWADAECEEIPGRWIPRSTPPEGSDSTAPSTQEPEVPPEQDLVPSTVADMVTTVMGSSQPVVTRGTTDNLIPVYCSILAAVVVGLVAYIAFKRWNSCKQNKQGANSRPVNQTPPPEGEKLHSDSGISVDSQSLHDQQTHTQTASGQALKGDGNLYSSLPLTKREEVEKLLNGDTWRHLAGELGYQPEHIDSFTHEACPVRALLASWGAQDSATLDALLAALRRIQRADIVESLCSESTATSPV", "test": "Cytometry binding assay in PC12 with anti-TrkA antibody", "conditions": "cells pre-incubated with anti-TrkA antibody; growing NGF", "procedure": "In order to assess the binding of G79 to the TrkA (PC12 cells) and TrkB receptors (SH-SY5Y), we performed competitive binding assays by flow cytometry. In order to assess the binding competition between p75 and TrkA, PC12 cells expressing both TrkA and p75 receptors were cultivated in normal growth medium. After detaching cells by trypsin solution, 200,000 cells/well were added to tubes for the following incubations. One tube contains control untreated cells. In the other tubes, cells were pre-incubated for 45 minutes with different concentrations of NGF (0-10-20-50-100 ng/ml), that can directly bind both TrkA and p75 receptors, blocking the possible binding of G79 if it competes for the same receptors. Then, without washing the cells, G79 conjugated with FITC fluorescence (100 ng/ml) was added and so incubated the cells for 1 hour. Samples were read in a cytometer (FCAScan).\nTo detect the binding separately on both receptors, a prior incubation of cells (before NGF incubation) with blocking antibodies was made. The cells were preincubated for 1 hour with blocking antibody anti-p75 (1:100; Chemicon Int.), to detect the binding on TrkA, or blocking antibody anti-TrkA (1:200; AbCam) to detect the binding on p75. […] All the results are expressed as mean channel fluorescence (MCF), which is a measure of the cell surface fluorescence produced by G79-FITC binding."}, "[3]": {"conditions": "preventive trial, 100 mg/Kg i.p."}}}
{"smiles": "CC(C)CN(CC(=O)N(CCCN1CCCC1=O)CC(N)=O)C(=O)CNCCc1ccccc1F", "note": "[Compound G79, [N-(2-(2′-Fluorophenyl)ethyl)glycyl]-[N-(2-methylpropyl)glycyl]-N-[3-(2′-oxopyrrolidinyl)propyl]glycinamide]", "values": [{"measurement": "therapeutic effect in ameliorating the clinical score (in words)", "setting": "[1]; curative trial, 100 mg/Kg i.p.", "value": "best therapeutic effect in ameliorating the clinical score"}, {"measurement": "clinical score", "setting": "[1]; curative trial, 100 mg/Kg i.p., 16th day", "value": "2.8±1.2"}, {"measurement": "clinical score", "setting": "[1]; curative trial, 100 mg/Kg i.p., day 19th", "value": "1.75±1"}, {"measurement": "clinical score", "setting": "[1]; curative trial, 100 mg/Kg i.p., day not printed (between day 16th and 23rd)", "value": "1.6±0.8"}, {"measurement": "delaying the disease, comparison of the doses", "setting": "[1]; [3]", "value": "more effective in delaying the disease"}, {"measurement": "final clinical score at day 30th", "setting": "[1]; [3]", "value": "lower compared to placebo treated animals"}, {"measurement": "onset of the disease (clinical score)", "setting": "[1]; preventive trial, G79 40 and 100 mg/kg i.p. daily", "value": "delay in the presence of the disease, although not significant"}, {"measurement": "binding on p75 (MCF of G79-FITC)", "setting": "[2]", "value": "could bind on p75 receptor"}]}
